# Results taken from patent publication US20200306266A1, “SOLID DISPERSION OF DUTASTERIDE, METHOD FOR PRODUCING SAME, AND PHARMACEUTICAL COMPOSITION COMPRISING SAME” (KOREA PRIME PHARM CO., LTD., priority 2017, published 2020).
# Assay: Storage stability, related substance test
# Assay type: physicochemical
# Conditions: Raw material
# Protocol: Evaluation of Storage Stability of the Preparations
# The storage stabilities of the preparations were evaluated according to the test criteria for related substances.
smiles,measurement,value
"C[C@]12C=CC(=O)N[C@@H]1CC[C@@H]1[C@@H]2CC[C@]2(C)[C@@H](C(=O)Nc3cc(C(F)(F)F)ccc3C(F)(F)F)CC[C@@H]12 [Dutasteride, 17β-N-[2,5-bis(trifluoromethyl)]phenylcarbamoyl-4-aza-5α-androst-1-en-3-one]",Judgement,Suitable
